As usually defined, the IC50 is the concentration at which inhibition is half-maximal.

The source of these data is patent US7989203B2, “Methods for use of apoptotic cells to deliver antigen to dendritic cells for induction or tolerization of T cells” (The Rockefeller University, priority 1998, dated 2011).

The test system of assay [1] is DCs. Format: cell-based, human.
Another assay has as its system immature DCs. Format: cell-based, human. The note with it: for Percent Inhibition of phagocytosis of apoptotic cells: immature DC/apoptotic cell coculture, averages of 2-4 experiments.
The next assay deals with protein kinase C. The note with it: footnote to Table II; cited from earlier work.
For assay [2], the system named is DCs. Kind of assay: Y-Ae epitope (I-Ab/I-E peptide complex) formation on DCs cultured with B blasts (FACS). To be noted: DCs cultured 20 h with B blasts. Format: cell-based, mouse. The procedure:
[FIG. 11B]: Y-Ae epitope formation is blocked by NH4Cl. DCs were cultured 20 h with B blasts with or without NH4Cl at 5-20 mM. The cultures were stained for Y-Ae and CD86.
Antibodies. The Y-Ae hybridoma was generously provided by Dr. C. Janeway, Yale University, New Haven Conn. and grown serum-free. The IgG2b antibody was purified on protein A sepharose, biotinylated, and used in the FACS along with PE-streptavidin to detect MHC class II-peptide complexes (75,76) with a mouse IgG2b anti-human TCR antibody as the non-reactive control [PharMingen, San Diego Calif.]. The cells were double labeled for FACS and for microscopy with FITC antibodies to CD8, CD11c, CD86, I-Ab [AF6-120.1], 1-Ad, and I-E [14-4-4S][PharMingen].
Capture of cell-derived peptides in vitro. Bone marrow DCs were generated in 24 well plates for 6 days in GM-CSF, gently washed to remove mature floating DCs, and then fed B blasts, human cells, or a peptide [residues 56-73 of 1-Eα]. Before adding I-E^+ cells or peptide, the DCs were immature, since much of the MHC class II was in intracellular lysosomal compartments and CD86 was not expressed at the surface (84) After uptake of I-E, the DCs matured with high levels of surface MHC II and CD86.

Assay [3] relates to influenza-infected monocytes. Format: cell-based, human. To be noted: concentrations which inhibited apoptosis of the infected monocytes; 7 days.
In assay [4] the test system is influenza-infected monocytes. Format: cell-based, human. To be noted: determined by TUNEL; without affecting expression of viral proteins.
Another assay has as its target phospholipase D. To be noted: footnote to Table II; cited from earlier work.

Entries after “also recorded” stand apart in the source; their conditions may differ. Read-outs that look alike come from different tables or passages of the source. *: point of attachment. Cbz = O=C(OCc1ccccc1)*

Consider `C[C@H]1CCC/C=C/[C@@H]2C[C@H](O)C[C@H]2[C@H](O)/C=C/C(=O)O1` [BFA, Brefeldin A], for which, in the assay on DCs [1] (DCs preincubated with 6 ug/ml), the “DCs ability to present antigenic material on MHC class I” value was “completely inhibited”.
Take `COc1ccc2c(c[n+](C)c3c4cc5c(cc4ccc23)OCO5)c1OC.[Cl-]` [CC, Chelethrine chloride]: in the assay with immature DCs (12 μM), the “Percent Inhibition of phagocytosis of apoptotic cells” value (“Percent Inhibition” for short) amounted to 4%. Moreover, on protein kinase C, the concentration for half-maximal inhibition (IC50) is 660 nM.
For the compound `C=C1[C@@H](C)[C@H]2[C@H](Cc3ccccc3)NC(=O)[C@]23[C@H](OC(C)=O)/C=C/[C@@](C)(O)C(=O)[C@@H](C)C/C=C/[C@H]3[C@@H]1O` [Cytochalasin D], the “inhibition of phagocytosis of apoptotic cells by immature DCs (in words)” value (“inhibition of phagocytosis … (in words)” for short) in the assay on immature DCs (concentration not given) is “blocked uptake”.
Turning to `O=C(O)CN(CCN(CC(=O)O)CC(=O)O)CC(=O)O` [EDTA], the “inhibition of phagocytosis … (in words)” value with immature DCs is listed as “inhibitory”.
`O=C(O)c1cc(N(Cc2ccccc2O)Cc2cc(O)ccc2O)ccc1O` [LA, Lavendustin A]: the “Percent Inhibition” value in the assay with immature DCs (10 μM) is on record as 14%; with immature DCs (40 μM), 41.5%.
Taken in the same sequence, the figures for `O=C(O)c1cc(N(Cc2ccccc2O)Cc2ccccc2O)ccc1O` [LB, Lavendustin B] were 0% and 0%.
Regarding `CC(=O)N[C@@H](CSC(=O)[C@]1([C@@H](O)C(C)C)NC(=O)[C@H](C)[C@@H]1O)C(=O)O` [Lactacystin], the “antigen presentation by the uninfected DCs” value in the assay with DCs [1] (unpublished data, concentration not given) is recorded as “only partially blocked”.
For `Cl.N` [NH4Cl, ammonium chloride], the “DCs ability to present antigenic material on MHC class I” value in the assay with DCs [1] is given as “completely inhibited”. Further, the “Y-Ae development (epitope formation)” value was “partially” in the assay with DCs [2] (5 mM) and “totally blocked; also recorded: completely blocked” in the assay on DCs [2] (20 mM).
Turning to Cbz-Val-Ala-Asp-aldehyde, the “generation of virus-specific CTLs after transfer of medium from treated infected monocytes to T cells and uninfected DCs” value in assay [3] was “virus-specific CTLs were not generated”. The “apoptosis of influenza-infected monocytes” value in assay [4] is listed as “block apoptosis”.
In the case of Herbamycin A, the “Percent Inhibition” value in the assay with immature DCs (1.8 μM) turned out to be 6.5%; in the assay on immature DCs (9 μM), 49%; in the assay with immature DCs (18 μM), 66.5%. In addition, the “IC50, PDGF-induced phospholipase D activation” value on phospholipase D is “^§Herbamycin A is a potent cell-permeable protein tyrosine kinase inhibitor and inhibits PDGF-induced phospholipase D activation (IC50 = 8 μg/ml) in a dose dependant manner”.
On to TSP: purified TSP (thrombospondin), for which the “inhibition of phagocytosis … (in words)” value in the assay with immature DCs (concentration not given) is on record as “nor the addition of purified TSP to DC/apoptotic cell co-cultures has an inhibitory effect”.
